Measured values published in patent publication US11077090B2, “Compounds and compositions and uses thereof” (Sunovion Pharmaceuticals Inc., priority 2016, dated 2021).

Tested on: compound-treated mice
Assay: Neuropharmacological assay (SmartCube): behavioral activity signature and minimal effective dose
Type: in vivo
Conditions: for minimal effective dose: Mus musculus, ip, MED = dose having 50% or more total activity, read-out: Potency: minimal effective dose (MED); for AD: ADHD (probability of activity signature) / AG: analgesic (probability of activity signature) / AX: anxiolytic (probability of activity signature) / CE: cognitive enhancer (probability of activity signature) / DP: anti-depressant (probability of activity signature) / MS: mood stabilizer (probability of activity signature) / PS: anti-psychotic (probability of activity signature) / SD: sedative hypnotic (probability of activity signature) / UN: uncharacterized CNS activity (probability of activity signature): i.p. 15 min before test, most efficacious dose(s)
How it was run: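 Mice dosed i.p. 15 min before test, compound in N-methyl-2-pyrrolidone/PEG/propylene glycol, 3 doses; video-captured behavior matched to reference-drug signatures, giving per-class probabilities at most efficacious dose. MED from doses typically 0.3–30 mpk, defined as lowest dose with ≥50% total activity.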

Row | SMILES | minimal effective dose [mg/kg] | AD: ADHD (probability of activity signature) | AG: analgesic (probability of activity signature) | AX: anxiolytic (probability of activity signature) | CE: cognitive enhancer (probability of activity signature) | DP: anti-depressant (probability of activity signature) | MS: mood stabilizer (probability of activity signature) | PS: anti-psychotic (probability of activity signature) | SD: sedative hypnotic (probability of activity signature) | UN: uncharacterized CNS activity (probability of activity signature)
1 | CN(C)C1COCc2ccccc21.Cl (stereo not drawn) [Example 60, N,N-dimethylisochroman-4-amine hydrochloride] | 10 to 30 | + (LOQ ≤ + <5%) | ++ (5% ≤ ++ <25%) | +++ (25% ≤ +++ <50%) | ++ (5% ≤ ++ <25%) | ++ (5% ≤ ++ <25%) | + (LOQ ≤ + <5%) | ++ (5% ≤ ++ <25%) | + (LOQ ≤ + <5%) | + (LOQ ≤ + <5%)
2 | Cc1ccc2c(c1C)C(N(C)C)COC2.Cl (stereo not drawn) [Example 61] | 10 to 30 | + (LOQ ≤ + <5%) | ++ (5% ≤ ++ <25%) | ++ (5% ≤ ++ <25%) | ++ (5% ≤ ++ <25%) | + (LOQ ≤ + <5%) | + (LOQ ≤ + <5%) | ++ (5% ≤ ++ <25%) | + (LOQ ≤ + <5%) | ++++ (50% ≤ ++++)
3 | Cc1ccc2c(c1)C(N(C)C)CCOC2.Cl (stereo not drawn) [Example 62] | 3 to 10 | + (LOQ ≤ + <5%) | ++ (5% ≤ ++ <25%) | ++ (5% ≤ ++ <25%) | +++ (25% ≤ +++ <50%) | ++ (5% ≤ ++ <25%) | ++ (5% ≤ ++ <25%) | ++ (5% ≤ ++ <25%) | + (LOQ ≤ + <5%) | ++++ (50% ≤ ++++)
4 | Cc1ccc2c(c1)C(N)C(C)(C)COC2.Cl (stereo not drawn) [Example 63, 4,4,7-Trimethyl-1,3,4,5-tetrahydrobenzo[c]oxepin-5-amine hydrochloride] | 10 to 30 | + (LOQ ≤ + <5%) | ++ (5% ≤ ++ <25%) | ++ (5% ≤ ++ <25%) | ++ (5% ≤ ++ <25%) | ++ (5% ≤ ++ <25%) | + (LOQ ≤ + <5%) | + (LOQ ≤ + <5%) | + (LOQ ≤ + <5%) | ++ (5% ≤ ++ <25%)
5 | CC1(N)COCc2ccc(F)cc21.Cl (stereo not drawn) [Example 68, 6-Fluoro-4-methylisochroman-4-amine hydrochloride] | 10 to 30 | + (LOQ ≤ + <5%) | ++ (5% ≤ ++ <25%) | ++ (5% ≤ ++ <25%) | ++ (5% ≤ ++ <25%) | ++ (5% ≤ ++ <25%) | + (LOQ ≤ + <5%) | ++ (5% ≤ ++ <25%) | + (LOQ ≤ + <5%) | ++ (5% ≤ ++ <25%)
6 | Cc1ccc2c(c1C)[C@H](N)[C@H](C)OC2.Cl [Example 78] | 3 to 10 | + (LOQ ≤ + <5%) | ++ (5% ≤ ++ <25%) | ++ (5% ≤ ++ <25%) | ++ (5% ≤ ++ <25%) | ++ (5% ≤ ++ <25%) | + (LOQ ≤ + <5%) | +++ (25% ≤ +++ <50%) | + (LOQ ≤ + <5%) | ++++ (50% ≤ ++++)
7 | Cc1ccc2c(c1C)[C@H](N)[C@@H](C)OC2.Cl [Example 79] | 3 to 10 | + (LOQ ≤ + <5%) | ++ (5% ≤ ++ <25%) | +++ (25% ≤ +++ <50%) | ++ (5% ≤ ++ <25%) | ++ (5% ≤ ++ <25%) | + (LOQ ≤ + <5%) | ++ (5% ≤ ++ <25%) | ++ (5% ≤ ++ <25%) | ++ (5% ≤ ++ <25%)
8 | C[C@@H]1OCc2cccc(Cl)c2[C@@H]1N.Cl [Example 80] | < 3 | + (LOQ ≤ + <5%) | ++ (5% ≤ ++ <25%) | +++ (25% ≤ +++ <50%) | + (LOQ ≤ + <5%) | + (LOQ ≤ + <5%) | + (LOQ ≤ + <5%) | ++ (5% ≤ ++ <25%) | ++ (5% ≤ ++ <25%) | +++ (25% ≤ +++ <50%)
9 | C[C@H]1OCc2cccc(Cl)c2[C@@H]1N.Cl [Example 81] | < 3 | + (LOQ ≤ + <5%) | ++ (5% ≤ ++ <25%) | +++ (25% ≤ +++ <50%) | ++ (5% ≤ ++ <25%) | ++ (5% ≤ ++ <25%) | + (LOQ ≤ + <5%) | ++ (5% ≤ ++ <25%) | ++ (5% ≤ ++ <25%) | +++ (25% ≤ +++ <50%)
10 | Cc1cccc2c1[C@H](N)[C@H](C)OC2.Cl [Example 82] | < 3 | + (LOQ ≤ + <5%) | ++ (5% ≤ ++ <25%) | +++ (25% ≤ +++ <50%) | ++ (5% ≤ ++ <25%) | ++ (5% ≤ ++ <25%) | + (LOQ ≤ + <5%) | ++ (5% ≤ ++ <25%) | ++ (5% ≤ ++ <25%) | +++ (25% ≤ +++ <50%)
11 | Cc1cccc2c1[C@H](N)[C@@H](C)OC2.Cl [Example 83] | 3 to 10 | + (LOQ ≤ + <5%) | ++ (5% ≤ ++ <25%) | ++ (5% ≤ ++ <25%) | ++ (5% ≤ ++ <25%) | + (LOQ ≤ + <5%) | + (LOQ ≤ + <5%) | ++ (5% ≤ ++ <25%) | + (LOQ ≤ + <5%) | ++++ (50% ≤ ++++)
12 | COc1ccc2c(c1)[C@H](N)[C@H](C)OC2.Cl [Example 84] | 3 to 10 | + (LOQ ≤ + <5%) | ++ (5% ≤ ++ <25%) | ++++ (50% ≤ ++++) | ++ (5% ≤ ++ <25%) | ++ (5% ≤ ++ <25%) | + (LOQ ≤ + <5%) | ++ (5% ≤ ++ <25%) | + (LOQ ≤ + <5%) | +++ (25% ≤ +++ <50%)
13 | COc1ccc2c(c1)[C@H](N)[C@@H](C)OC2.Cl [Example 85] | 3 to 10 | + (LOQ ≤ + <5%) | +++ (25% ≤ +++ <50%) | ++ (5% ≤ ++ <25%) | ++ (5% ≤ ++ <25%) | ++ (5% ≤ ++ <25%) | + (LOQ ≤ + <5%) | + (LOQ ≤ + <5%) | + (LOQ ≤ + <5%) | +++ (25% ≤ +++ <50%)
14 | C[C@@H]1OCc2c(Cl)cccc2[C@@H]1N.Cl [Example 86] | 10 to 30 | + (LOQ ≤ + <5%) | ++ (5% ≤ ++ <25%) | ++ (5% ≤ ++ <25%) | ++ (5% ≤ ++ <25%) | + (LOQ ≤ + <5%) | + (LOQ ≤ + <5%) | ++ (5% ≤ ++ <25%) | + (LOQ ≤ + <5%) | +++ (25% ≤ +++ <50%)
15 | C[C@H]1OCc2c(Cl)cccc2[C@@H]1N.Cl [Example 87] | 3 to 10 | + (LOQ ≤ + <5%) | ++ (5% ≤ ++ <25%) | ++ (5% ≤ ++ <25%) | ++ (5% ≤ ++ <25%) | ++ (5% ≤ ++ <25%) | + (LOQ ≤ + <5%) | ++ (5% ≤ ++ <25%) | ++ (5% ≤ ++ <25%) | +++ (25% ≤ +++ <50%)
